Several values for one entry are separate records, joined by “and”; a condition that tells them apart may be missing. Identical values can stand only once. Like-named read-outs stand apart in the source and are kept apart here.
Assays:
GX_P2V [1] = assay: microbe, parasite or virus in culture; type: cell-based, Guangxi pangolin-CoV (GX_P2V)
[2] = system: SARS-CoV-2 pseudotyped virus; assay: microbe, parasite or virus in culture; type: cell-based
[3] = system: SARS-CoV-2 live virus (SARS-CoV-2/WH-09/human/2020/CHN); assay: microbe, parasite or virus in culture; type: cell-based
PEDV strain CV777 = assay: microbe, parasite or virus in culture; type: cell-based, porcine epidemic diarrhea virus (PEDV)
[4] = system: SADS-CoV strain CN/GDWT/2017; assay: cells; type: cell-based, swine acute diarrhoea syndrome coronavirus (SADS-CoV)
[5] = system: SARS-CoV pseudotyped virus; assay: microbe, parasite or virus in culture; type: cell-based; details: for EC50: read-out: EC50 against SARS-CoV pseudotyped virus
[6] = system: MERS-CoV pseudotyped virus; assay: microbe, parasite or virus in culture; type: cell-based
GX_P2V [7] = assay: organism not typed; type: cell-based, Guangxi pangolin-CoV (GX_P2V); details: for inhibition at 6.25 µM: Vero C1008, read-out: Inhibition against GX_P2V, full-time treatment
SARS-CoV-2 trVLP [8] = type: cell-based
SARS-CoV-2 trVLP [9] = system: SARS-CoV-2 trVLP
in vitro [10] = details: African green monkey
in vitro [11] = details: human, Caco-2
in vitro [12] = details: human
SARS-CoV-2 trVLP [13] = assay: microbe, parasite or virus in culture
[14] = Vero C1008, 48 h, read-out: Percentage of Inhibition (%)
[15] = Vero C1008, read-out: EC50 GX_P2V
[16] = Severe acute respiratory syndrome coronavirus 2, Vero C1008, read-out: SARS-CoV-2 (Vero E6) EC50
[17] = Porcine epidemic diarrhea virus, Huh-7, read-out: EC50 against PEDV
[18] = Huh-7, read-out: EC50 against SADS-CoV
[19] = Severe acute respiratory syndrome coronavirus
[20] = Middle East respiratory syndrome-related coronavirus, Huh-7, read-out: EC50 against MERS-CoV pseudotyped virus
[21] = CC50, cytotoxicity to Huh 7 cells (Fig. 4B, SADS-CoV panel)
[22] = Severe acute respiratory syndrome coronavirus 2, read-out: EC50 SARS-CoV-2 trVLP
[23] = Vero C1008, read-out: EC50 against GX_P2V, repeated experiment
[24] = Severe acute respiratory syndrome coronavirus 2, read-out: EC50 SARS-CoV-2pseudotypedvirus

Compound | inhibition at 1.09691 µM (GX_P2V [1]; [14]) [%] | inhibition at 1.39794 µM (GX_P2V [1]; [14]) [%] | inhibition at 1.69897 µM (GX_P2V [1]; [14]) [%] | EC50 (GX_P2V [1]; [15]) [µM] | EC50 [3, 16] [µM] | EC50 (PEDV strain CV777; [17]) [nM] | EC50 [4, 18] [µM] | EC50 [5, 19] [µM] | EC50 [6, 20] [nM] | Time of addition of anti-GX_P2V activity, Entry (GX_P2V [7]) | Time of addition of anti-GX_P2V activity, Full-time (GX_P2V [7]) | Time of addition of anti-GX_P2V activity, Post-entry (GX_P2V [7]) | Time of addition of anti-SARS-CoV-2 trVLPs activity, Entry (SARS-CoV-2 trVLP [8]) | Time of addition of anti-SARS-CoV-2 trVLPs activity, Full-time (SARS-CoV-2 trVLP [8]) | Time of addition of anti-SARS-CoV-2 trVLPs activity, Post-entry (SARS-CoV-2 trVLP [8]) | SI (SARS-CoV-2 trVLP, Caco 2-N) (SARS-CoV-2 trVLP [9]) | CC50 at 48 h (in vitro [10]) [µM] | CC50 at 48 h (in vitro [11]) [µM] | CC50 (in vitro [12]; [21]) [µM] | EC50 (SARS-CoV-2 trVLP [13]; [22]) [nM] | further results
COc1cc2c3cc1Oc1c(OC)c(OC)cc4c1[C@@H](Cc1ccc(O)c(c1)Oc1ccc(cc1)C[C@@H]3N(C)CC2)N(C)CC4 [Berbamine, berbamine] | 96.4 | 100 | 100 | 6.92 | 19.9 | 500 | 5.84 | 5.55 | 3370 | 53.007 and 53.569 and 52.218 | 99.845 and 99.848 and 99.866 | 93.479 and 93.373 and 93.128 | 49.832 and 46.966 and 50.173 | 90.853 and 91.022 and 89.926 | 85.087 and 83.404 and 83.155 | > 6.13 | > 50 | > 50 | > 25 | 8150 | inhibition at 0.79588 µM (GX_P2V [1]; [14]): 33.8%; EC50 ([2]; Severe acute respiratory syndrome coronavirus 2, 24 h, read-out: EC50 against SARS-CoV-2 pseudotyped virus): 1.87 µM; EC50 ([4]; Huh-7, read-out: EC50 SADS): 3.33 µM; CC50 at 48 h (in vitro [12]): > 25 µM
isotetrandrine | – | – | – | – | – | – | – | – | – | 64.671 and 52.909 and 54.392 | 95.271 and 94.111 and 93.848 | 79.054 and 80.217 and 78.230 | – | 69.205 and 66.812 and 64.054 | 57.048 and 54.613 and 56.353 | – | – | – | – | – | Percentage of Inhibition (%) (GX_P2V [1]): 100%; EC50 (GX_P2V [1]; read-out: EC50 GX_P2V): 7.43 µM; EC50 ([2]; read-out: EC50 SARS-CoV-2pseudotypedvirus): 7.32 µM; EC50 ([3]; read-out: SARS-CoV-2 (Vero E6) EC50): 4.47 µM; EC50 (PEDV strain CV777; read-out: EC50 against PEDV): 1670 nM; EC50 ([4]; read-out: EC50 against SADS-CoV): 3.67 µM; Percentage of Inhibition (%) [5]: 83.000% and 63.000%; EC50 [5]: 4.77 µM; EC50 ([6]; read-out: EC50 against MERS-CoV pseudotyped virus): 3310 nM; EC50 (SARS-CoV-2 trVLP [9]; read-out: EC50 SARS-CoV-2 trVLP): 2820 nM
COc1cc2c(cc1O)[C@@H](Cc1ccc(O)c(Oc3ccc(C[C@@H]4c5cc(OC)c(OC)cc5CCN4C)cc3)c1)N(C)CC2 [Daurisoline, daurisoline] | – | 100 | 100 | – | 12.5 | 820 | 2.8 | 2.76 | 2460 | 73.500 and 68.250 and 70.810 | 99.980 | 90.220 and 88.260 and 87.780 | 21.082 and 20.351 and 25.494 | 69.364 and 69.350 and 65.328 | 59.015 and 61.872 and 61.323 | > 35.21 | > 50 | > 50 | – | – | inhibition at 0.193125 µM (GX_P2V [1]; [14]): 6.47%; inhibition at 0.78 µM (GX_P2V [1]; [14]): 63%; EC50 (GX_P2V [1]; Vero C1008, read-out: EC50 against GX_P2V): ~14.1 µM; EC50 (GX_P2V [1]; [23]): 10.6 µM; EC50 [2, 24]: 8.48 µM; inhibition at 6.25 µM (GX_P2V [7]): ~100%; CC50 (in vitro [12]): > 12.5 µM; EC50 (SARS-CoV-2 trVLP [13]; Severe acute respiratory syndrome coronavirus 2, read-out: EC50 against SARS-CoV-2 trVLP): 1420 nM
COc1ccc2cc1Oc1ccc(cc1)C[C@H]1c3cc(c(OC)cc3CCN1C)Oc1c(OC)c(OC)cc3c1[C@H](C2)N(C)CC3 [Tetrandrine, reference compound] | 100 | 100 | 100 | 5.21 | 3.13 | 440 | 2.19 | 3.04 | 2170 | 99.931 and 99.920 | 99.968 and 99.974 and 99.976 | 99.868 and 99.847 and 99.852 | 36.455 and 44.889 and 48.206 | 99.957 and 99.767 and 99.878 | 89.364 and 97.266 and 89.859 | > 17.86 | 21.9 | > 50 | > 12.5 | 2800 | inhibition at 0.49485 µM (GX_P2V [1]; [14]): 11.3%; inhibition at 0.79588 µM (GX_P2V [1]; [14]): 70.2%; EC50 [2, 24]: 3.2 µM; Percentage of Inhibition (%) [5]: 99.687%; Percentage of Inhibition (%) [6]: 99.674% and 99.511%; CC50 (in vitro [10]): 21.9 µM; CC50 (in vitro [12]): 11.7 µM
COc1cc2c(cc1OC)[C@@H](Cc1ccc(Oc3cc(C[C@@H]4c5cc(OC)c(OC)cc5CCN4C)ccc3O)cc1)N(C)CC2 [Dauricine, dauricine] | 10.1 | 95.2 | 100 | 15.7 | – | 1700 | 0.84 | 2.63 | 2130 | – | 94.280 and 92.940 and 93.040 | 24.420 and 36.380 and 19.300 | 75.941 and 76.217 and 74.799 | 87.622 and 86.812 and 85.889 | 74.686 and 90.971 and 75.807 | > 17.61 | > 50 | > 50 | > 12.5 | 2840 | EC50 (GX_P2V [1]; [23]): 13.1 µM; EC50 [2, 24]: 6.58 µM; Percentage of Inhibition (%) (PEDV strain CV777): 99.987%; Percentage of Inhibition (%) [4]: 99.922%; Stage of the viral life cycle affected (time-of-addition) (GX_P2V [7]): superior inhibitory activity during the entry stage compared with the post-entry stage; inhibition at 6.25 µM (GX_P2V [7]): ~100%; CC50 at 48 h (in vitro [12]): > 25 µM

From PMC10879537 (Nature Communications, 2024)
